Reference: patent US6358885B1, “Substituted phenylheterocyclic herbicides” (Mississippi State University, priority 1992, dated 2002)

What was measured:
[1] = test system: cocklebur; assay: Test B preemergence/postemergence greenhouse plant response rating 0 to 10; assay type: in vivo, Xanthium pensylvanicum; details: 0 to 10 scale
In short: (§1)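 Both application timings were run together: seeds got compound preemergence, and established seedlings (two to eighteen cm) got it postemergence. Non-phytotoxic solvent carried the chemical. Ratings are visual, versus controls, at twelve to sixteen days.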

[2] = test system: morningglory; assay: as above; assay type: in vivo, Ipomoea hederacea; details: 0 to 10 scale
In short: as §1

[3] = test system: sugar beet; assay: as above; assay type: in vivo, Beta vulgaris; details: 0 to 10 scale
In short: as §1

[4] = test system: ryegrass; assay: Test C preemergence/postemergence greenhouse plant response rating 0 to 100; assay type: in vivo, Lolium multiflorum; details: POSTEMERGENCE; for Plant response rating Ryegrass: 0 to 100 scale
In short: (§2)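 Compounds in non-phytotoxic solvent applied preemergence to sandy loam one day after planting, postemergence at the 1–4 leaf stage, or to ~2.5 cm floodwater over silt loam.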

[5] = test system: blackgrass; assay: as above; assay type: in vivo, Alopecurus myosuroides; details: POSTEMERGENCE; for Plant response rating, Blackgrass: 0 to 100 scale
In short: as §2

[6] = test system: blackgrass; assay: Test B preemergence/postemergence greenhouse plant response rating 0 to 10; assay type: in vivo, Alopecurus myosuroides; details: 0 to 10 scale
In short: as §1

[7] = test system: wheat; assay: Test C preemergence/postemergence greenhouse plant response rating 0 to 100; assay type: in vivo, Triticum aestivum; details: POSTEMERGENCE; for Plant response rating, Wheat: 0 to 100 scale
In short: as §2

[8] = test system: bedstraw; assay: Test B preemergence/postemergence greenhouse plant response rating 0 to 10; assay type: in vivo, Galium aparine; details: 0 to 10 scale
In short: as §1

[9] = test system: pigweed; assay: Test C preemergence/postemergence greenhouse plant response rating 0 to 100; assay type: in vivo, Amaranthusretroflexus; details: POSTEMERGENCE; for Plant response rating Pigweed: 0 to 100 scale
In short: as §2

[10] = test system: cotton; assay: as above; assay type: in vivo, Gossypium hirsutum; details: POSTEMERGENCE; for Plant response rating, Cotton: 0 to 100 scale
In short: as §2

[11] = test system: barnyardgrass; assay: Test C flood test plant response rating 0 to 100; assay type: in vivo, Echinochloa crus-galli; details: for Plant response rating (0 to 100), Barnyardgrass: under POSTEMERGENCE head (flood test species); for Plant response rating, Barnyardgrass: flood test species listed under POSTEMERGENCE, 0 to 100 scale
From the text: The compounds evaluated in this test were formulated in a non-phytoxic solvent and applied to the soil surface before plant seedlings emerged (preemergence application), to water that covered the soil surface (flood application), and to plants that were in the one-to-four leaf stage (postemergence application). A sandy loam soil was used for the preemergence and postemergence tests, while a silt loam soil was used in the flood test. Water depth was approximately 2.5 cm for the flood test and was maintained at this level for the duration of the test. Plant species in the preemergence and postemergence tests consisted of barley (Hordeum vulgare), bedstraw (Galium aparine), blackgrass (Alopecurus myosuroides), chickweed (Stellaria media), corn (Zea mays), cotton (Gossypium hirsutum), crabgrass (Digitaria sanguinalis), downy brome (Bromus tectorum), giant foxtail (Setaria faberii), lambsquarters (Chenopodium album), morningglory (Ipomoea hederacea), pigweed ([…]), rape (Brassica napus), ryegrass (Lolium multiflorum), sorghum (Sorghum bicolor), soybean (Glycine max), speedwell (Veronica persica), sugar beet (Beta vulgaris), velvetleaf (Abutilon theophrasti), wheat (Triticum aestivum), wild buckwheat (Polygonum convolvulus), and wild oat (Avena fatua). All plant species were planted one day before application of the compound for the preemergence portion-of this test. Plantings of these species were adjusted to produce plants of appropriate size for the post-emergence portion of the test. […] All plant species were grown using normal greenhouse practices. Visual evaluations of injury expressed on treated plants, when compared to untreated controls, were recorded approximately fourteen to twenty one days after application of the test compound. […] A dash (-) response means no test result.

[12] = test system: wild oat; assay: Test B preemergence/postemergence greenhouse plant response rating 0 to 10; assay type: in vivo, Avena fatua; details: 0 to 10 scale
In short: as §1

C=C(Cl)COc1cc(-c2nn3c(c2Cl)CCCC3)c(F)cc1Cl [Compound 40]
Plant response rating, Cocklebur ([1]; POSTEMERGENCE, Rate 50 g/ha): 5
Plant response rating, Cocklebur ([1]; POSTEMERGENCE, Rate 200 g/ha): 10
Plant response rating, Cocklebur ([1]; PREEMERGENCE, Rate 50 g/ha): 5
Plant response rating, Cocklebur ([1]; Rate 200 g/ha, PREEMERGENCE): 8
Plant response rating, Morningglory ([2]; POSTEMERGENCE, Rate 50 g/ha): 3
Plant response rating, Morningglory ([2]; PREEMERGENCE, Rate 50 g/ha): 1
Plant response rating, Morningglory ([2]; Rate 200 g/ha, POSTEMERGENCE): 9
Plant response rating, Morningglory ([2]; Rate 200 g/ha, PREEMERGENCE): 4
Plant response rating, Sugar beet ([3]; POSTEMERGENCE, Rate 50 g/ha): 10
Plant response rating, Sugar beet ([3]; PREEMERGENCE, Rate 50 g/ha): 9
Plant response rating, Sugar beet ([3]; Rate 200 g/ha, POSTEMERGENCE): 10
Plant response rating, Sugar beet ([3]; Rate 200 g/ha, PREEMERGENCE): 9
Plant response rating Ryegrass ([4]; 62 g/ha): 30
Plant response rating Ryegrass ([4]; 125 g/ha): 40
Plant response rating (0 to 100), Ryegrass ([4]; Rate 16 g/ha): 10
Plant response rating (0 to 100), Ryegrass ([4]; Rate 31 g/ha): 20
Plant response rating, Blackgrass ([5]; 62 g/ha): 50
Plant response rating, Blackgrass ([5]; 125 g/ha): 70
Plant response rating (0 to 100), Blackgrass ([5]; Rate 16 g/ha): 20
Plant response rating (0 to 100), Blackgrass ([5]; Rate 31 g/ha): 30
Plant response rating, Blackgrass ([6]; POSTEMERGENCE, Rate 50 g/ha): 2
Plant response rating, Blackgrass ([6]; POSTEMERGENCE, Rate 200 g/ha): 3
Plant response rating, Blackgrass ([6]; Rate 200 g/ha, PREEMERGENCE): 2
Plant response rating, Wheat ([7]; 62 g/ha): 40
Plant response rating, Wheat ([7]; 125 g/ha): 50
Plant response rating (0 to 100), Wheat ([7]; Rate 16 g/ha): 20
Plant response rating (0 to 100), Wheat ([7]; Rate 31 g/ha): 30
Plant response rating, Bedstraw ([8]; POSTEMERGENCE, Rate 50 g/ha): 10
Plant response rating, Bedstraw ([8]; PREEMERGENCE, Rate 50 g/ha): 9
Plant response rating, Bedstraw ([8]; Rate 200 g/ha, PREEMERGENCE): 9
Plant response rating Pigweed ([9]; 62 g/ha): 100
Plant response rating Pigweed ([9]; 125 g/ha): 100
Plant response rating (0 to 100), Pigweed ([9]; Rate 16 g/ha): 90
Plant response rating (0 to 100), Pigweed ([9]; Rate 31 g/ha): 95
Plant response rating, Cotton ([10]; 62 g/ha): 100
Plant response rating, Cotton ([10]; 125 g/ha): 100
Plant response rating (0 to 100), Cotton ([10]; Rate 16 g/ha): 100
Plant response rating (0 to 100), Cotton ([10]; Rate 31 g/ha): 100
Plant response rating (0 to 100), Barnyardgrass ([11]; Rate 16 g/ha): 100
Plant response rating (0 to 100), Barnyardgrass ([11]; Rate 31 g/ha): 100
Plant response rating, Barnyardgrass ([11]; 62 g/ha): 100
Plant response rating, Barnyardgrass ([11]; 125 g/ha): 100
Plant response rating, Wild oat ([12]; POSTEMERGENCE, Rate 50 g/ha): 4
Plant response rating, Wild oat ([12]; PREEMERGENCE, Rate 50 g/ha): 0
Plant response rating, Wild oat ([12]; Rate 200 g/ha, POSTEMERGENCE): 5

C=CCN1C(=O)COc2cc(F)c(-c3nn4c(c3Br)CCCC4)cc21 [Compound 41]
Plant response rating, Cocklebur ([1]; POSTEMERGENCE, Rate 50 g/ha): 10
Plant response rating, Cocklebur ([1]; POSTEMERGENCE, Rate 200 g/ha): 10
Plant response rating, Cocklebur ([1]; PREEMERGENCE, Rate 50 g/ha): 2
Plant response rating, Cocklebur ([1]; Rate 200 g/ha, PREEMERGENCE): 5
Plant response rating, Morningglory ([2]; POSTEMERGENCE, Rate 50 g/ha): 9
Plant response rating, Morningglory ([2]; PREEMERGENCE, Rate 50 g/ha): 0
Plant response rating, Morningglory ([2]; Rate 200 g/ha, POSTEMERGENCE): 10
Plant response rating, Morningglory ([2]; Rate 200 g/ha, PREEMERGENCE): 7
Plant response rating, Sugar beet ([3]; POSTEMERGENCE, Rate 50 g/ha): 10
Plant response rating, Sugar beet ([3]; PREEMERGENCE, Rate 50 g/ha): 10
Plant response rating, Sugar beet ([3]; Rate 200 g/ha, POSTEMERGENCE): 10
Plant response rating, Sugar beet ([3]; Rate 200 g/ha, PREEMERGENCE): 10
Plant response rating Ryegrass ([4]; 62 g/ha): 30
Plant response rating Ryegrass ([4]; 125 g/ha): 40
Plant response rating (0 to 100), Ryegrass ([4]; Rate 16 g/ha): 10
Plant response rating (0 to 100), Ryegrass ([4]; Rate 31 g/ha): 20
Plant response rating, Blackgrass ([5]; 62 g/ha): 50
Plant response rating, Blackgrass ([5]; 125 g/ha): 60
Plant response rating (0 to 100), Blackgrass ([5]; Rate 16 g/ha): 40
Plant response rating (0 to 100), Blackgrass ([5]; Rate 31 g/ha): 40
Plant response rating, Blackgrass ([6]; POSTEMERGENCE, Rate 50 g/ha): 2
Plant response rating, Blackgrass ([6]; POSTEMERGENCE, Rate 200 g/ha): 5
Plant response rating, Blackgrass ([6]; PREEMERGENCE, Rate 50 g/ha): 6
Plant response rating, Blackgrass ([6]; Rate 200 g/ha, PREEMERGENCE): 7
Plant response rating, Wheat ([7]; 62 g/ha): 50
Plant response rating, Wheat ([7]; 125 g/ha): 60
Plant response rating (0 to 100), Wheat ([7]; Rate 16 g/ha): 40
Plant response rating (0 to 100), Wheat ([7]; Rate 31 g/ha): 50
Plant response rating, Bedstraw ([8]; POSTEMERGENCE, Rate 50 g/ha): 10
Plant response rating, Bedstraw ([8]; POSTEMERGENCE, Rate 200 g/ha): 10
Plant response rating, Bedstraw ([8]; PREEMERGENCE, Rate 50 g/ha): 2
Plant response rating, Bedstraw ([8]; Rate 200 g/ha, PREEMERGENCE): 10
Plant response rating Pigweed ([9]; 62 g/ha): 100
Plant response rating Pigweed ([9]; 125 g/ha): 100
Plant response rating (0 to 100), Pigweed ([9]; Rate 16 g/ha): 90
Plant response rating (0 to 100), Pigweed ([9]; Rate 31 g/ha): 100
Plant response rating, Cotton ([10]; 62 g/ha): 100
Plant response rating, Cotton ([10]; 125 g/ha): 100
Plant response rating (0 to 100), Cotton ([10]; Rate 16 g/ha): 100
Plant response rating (0 to 100), Cotton ([10]; Rate 31 g/ha): 100
Plant response rating (0 to 100), Barnyardgrass ([11]; Rate 16 g/ha): 90
Plant response rating (0 to 100), Barnyardgrass ([11]; Rate 31 g/ha): 100
Plant response rating, Barnyardgrass ([11]; 62 g/ha): 100
Plant response rating, Barnyardgrass ([11]; 125 g/ha): 100
Plant response rating, Wild oat ([12]; POSTEMERGENCE, Rate 50 g/ha): 3
Plant response rating, Wild oat ([12]; PREEMERGENCE, Rate 50 g/ha): 2
Plant response rating, Wild oat ([12]; Rate 200 g/ha, POSTEMERGENCE): 4
